From US9149038B2, “4-amino-6-(heterocyclic)picolinates and 6-amino-2-(heterocyclic)pyrimidine-4-carboxylates and their use as herbicides” (Dow AgroSciences LLC, priority 2013, dated 2015)
Like-named read-outs stand apart in the source and are kept apart here.

System: Wheat and Barley and weed species
Assay: Post-Emergent Test III: postemergent herbicidal activity in wheat and barley, visual rating after 21 d and probit GR20/GR50/GR80/GR90 (Tables 9-13)
Type: in vivo
Settings: for Visual Growth Reduction (%) 21 Days After Application BRSNW: winter, canola; for pest or weed control at 17.5 g/ha / pest or weed control at 35 g/ha / pest or weed control at 70 g/ha: post-emergence, 504 h
From the text: Herbicidal evaluations were made visually on a scale of 0 to 100 where 0 represents no activity and 100 represents complete plant death.
Seeds of the desired test plant species were planted in Sun Gro MetroMix® 306 planting mixture, which typically has a pH of 6.0 to 6.8 and an organic matter content of about 30 percent, in plastic pots with a surface area of 103.2 square centimeters (cm^2). When required to ensure good germination and healthy plants, a fungicide treatment and/or other chemical or physical treatment was applied. The plants were grown for 7-36 days (d) in a greenhouse with an approximate 14 hour (h) photoperiod which was maintained at about 18° C. during the day and 17° C. during the night. Nutrients and water were added on a regular basis and supplemental lighting was provided with overhead metal halide 1000-Watt lamps as necessary. The plants were employed for testing when they reached the second or third true leaf stage.
A weighed amount, determined by the highest rate to be tested, of each test compound was placed in a 25 mL glass vial and was dissolved in 4 mL of a 97:3 v/v mixture of acetone and DMSO to obtain concentrated stock solutions. […] The concentrated stock solutions obtained were diluted with 20 mL of an aqueous mixture containing acetone, water, isopropyl alcohol, DMSO, Agri-Dex crop oil concentrate, and X-77 surfactant in a 48:39:10:1.5:1.5:0.02 v/v ratio to obtain spray solutions containing the highest application rates. Additional application rates were obtained by serial dilution of 12 mL of the high rate solution into a solution containing 2 mL of a 97:3 v/v mixture of acetone and DMSO and 10 mL of an aqueous mixture containing acetone, water, isopropyl alcohol, DMSO, Agri-Dex crop oil concentrate, and X-77 surfactant in a 48:39:10:1.5:1.5:0.02 v/v ratio to obtain ½×, ¼×, ⅛× and 1/16× rates of the high rate. Compound requirements are based upon a 12 mL application volume at a rate of 187 liters per hectare (L/ha). Formulated compounds were applied to the plant material with an overhead Mandel track sprayer equipped with 8002E nozzles calibrated to deliver 187 L/ha over an application area of 0.503 square meters at a spray height of 18 inches (43 cm) above the average plant canopy height. Control plants were sprayed in the same manner with the solvent blank.
The treated plants and control plants were placed in a greenhouse as described above and watered by subirrigation to prevent wash-off of the test compounds. After 21 d, the condition of the test plants as compared with that of the untreated plants was determined visually and scored on a scale of 0 to 100 percent where 0 corresponds to no injury and 100 corresponds to complete kill and are presented as indicated in Table 4.
By applying the well-accepted probit analysis as described by J. Berkson in Journal of the American Statistical Society, 48, 565 (1953) and by D. Finney in “Probit Analysis” Cambridge University Press (1952), herbicidal injury of a specific compound at various rates can be used to calculate GR20, GR50, GR80 and GR90 values, which are defined as growth reduction factors that correspond to the effective dose of herbicide required to provide plant growth reduction (GR) of 20 percent, 50 percent, 80 percent and 90 percent, respectively. Probit analysis was applied to data collected from multiple dose rates of individual compounds utilizing the procedures explained in the following examples. The data for some of the dose rates and analysis of all of the dose rates are captured in the following tables.

Compound: Nc1c(F)c(-c2ccc3c(c2)OC(F)(F)O3)nc(C(=O)O)c1Cl [Compound 7]
- GR50 ALOMY (ALOMY black-grass (Alopecurus myosuroides), growth reduction of 50%, probit analysis): 16 g ai/ha
- GR80 ALOMY (ALOMY black-grass (Alopecurus myosuroides), growth reduction of 80%, probit analysis): 25 g ai/ha
- GR90 ALOMY (ALOMY black-grass (Alopecurus myosuroides), growth reduction of 90%, probit analysis): 34 g ai/ha
- GR50 APESV (APESV bentgrass (Apera spica-venti), growth reduction of 50%, probit analysis): 30 g ai/ha
- GR80 APESV (APESV bentgrass (Apera spica-venti), growth reduction of 80%, probit analysis): 114 g ai/ha
- GR90 APESV (APESV bentgrass (Apera spica-venti), growth reduction of 90%, probit analysis): >140 g ai/ha
- Visual Growth Reduction (%) 21 Days After Application BROTE (BROTE downy brome (Bromus tectorum), 17.5 g ai/ha): E (45-59)
- Visual Growth Reduction (%) 21 Days After Application BROTE (BROTE downy brome (Bromus tectorum), 35 g ai/ha): D (60-74)
- Visual Growth Reduction (%) 21 Days After Application BROTE (BROTE downy brome (Bromus tectorum), 70 g ai/ha): A (95-100)
- GR50 BROTE (BROTE downy brome (Bromus tectorum), growth reduction of 50%, probit analysis): 15 g ai/ha
- GR80 BROTE (BROTE downy brome (Bromus tectorum), growth reduction of 80%, probit analysis): 37 g ai/ha
- GR90 BROTE (BROTE downy brome (Bromus tectorum), growth reduction of 90%, probit analysis): 59 g ai/ha
- GR10 BRSNW (BRSNW oil seed rape, winter (Brassica napus), GR10, probit analysis): 0.5 g ai/ha
- GR20 BRSNW (BRSNW oil seed rape, winter (Brassica napus), growth reduction of 20%, probit analysis): 1 g ai/ha
- GR50 BRSNW (BRSNW oil seed rape, winter (Brassica napus), growth reduction of 50%, probit analysis): 5 g ai/ha
- GR80 BRSNW (BRSNW oil seed rape, winter (Brassica napus), growth reduction of 80%, probit analysis): 24 g ai/ha
- GR90 BRSNW (BRSNW oil seed rape, winter (Brassica napus), growth reduction of 90%, probit analysis): 53 g ai/ha
- Visual Growth Reduction (%) 21 Days After Application BRSNW (BRSNW oil seed rape, winter (Brassica napus), 17.5 g ai/ha): D (60-74)
- Visual Growth Reduction (%) 21 Days After Application BRSNW (BRSNW oil seed rape, winter (Brassica napus), 35 g ai/ha): C (75-84)
- Visual Growth Reduction (%) 21 Days After Application BRSNW (BRSNW oil seed rape, winter (Brassica napus), 70 g ai/ha): A (95-100)
- Visual Growth Reduction (%) 21 Days After Application GALAP (GALAP cleavers (Galium aparine), 17.5 g ai/ha): E (45-59)
- Visual Growth Reduction (%) 21 Days After Application GALAP (GALAP cleavers (Galium aparine), 35 g ai/ha): D (60-74)
- Visual Growth Reduction (%) 21 Days After Application GALAP (GALAP cleavers (Galium aparine), 70 g ai/ha): A (95-100)
- GR50 GALAP (GALAP cleavers (Galium aparine), growth reduction of 50%, probit analysis): 12 g ai/ha
- GR80 GALAP (GALAP cleavers (Galium aparine), growth reduction of 80%, probit analysis): 31 g ai/ha
- GR90 GALAP (GALAP cleavers (Galium aparine), growth reduction of 90%, probit analysis): 52 g ai/ha
- GR10 HORVS (HORVS barley, spring (crop), GR10, probit analysis): 1 g ai/ha
- GR20 HORVS (HORVS barley, spring (crop), growth reduction of 20%, probit analysis): 2 g ai/ha
- pest or weed control at 17.5 g/ha (Hordeum vulgare, HORVS barley, spring (crop), 17.5 g ai/ha, read-out: Visual Growth Reduction (%) 21 Days After Application HORVS): 75 to 84%
- pest or weed control at 35 g/ha (Hordeum vulgare, HORVS barley, spring (crop), 35 g ai/ha, read-out: Visual Growth Reduction (%) 21 Days After Application HORVS): 85 to 94%
- pest or weed control at 70 g/ha (Hordeum vulgare, HORVS barley, spring (crop), 70 g ai/ha, read-out: Visual Growth Reduction (%) 21 Days After Application HORVS): 85 to 94%
- Visual Growth Reduction (%) 21 Days After Application LAMPU (LAMPU purple deadnettle (Lamium purpureum), 17.5 g ai/ha): C (75-84)
- Visual Growth Reduction (%) 21 Days After Application LAMPU (LAMPU purple deadnettle (Lamium purpureum), 35 g ai/ha): B (85-94)
- Visual Growth Reduction (%) 21 Days After Application LAMPU (LAMPU purple deadnettle (Lamium purpureum), 70 g ai/ha): A (95-100)
- GR50 LAMPU (LAMPU purple deadnettle (Lamium purpureum), growth reduction of 50%, probit analysis): 3 g ai/ha
- GR80 LAMPU (LAMPU purple deadnettle (Lamium purpureum), growth reduction of 80%, probit analysis): 12 g ai/ha
- GR90 LAMPU (LAMPU purple deadnettle (Lamium purpureum), growth reduction of 90%, probit analysis): 27 g ai/ha
- GR50 LOLSS (LOLSS ryegrass, growth reduction of 50%, probit analysis): >140 g ai/ha
- GR80 LOLSS (LOLSS ryegrass, growth reduction of 80%, probit analysis): >140 g ai/ha
- GR90 LOLSS (LOLSS ryegrass, growth reduction of 90%, probit analysis): >140 g ai/ha
- Visual Growth Reduction (%) 21 Days After Application PHAMI (PHAMI lesser canary grass (Phalaris minor), 17.5 g ai/ha): C (75-84)
- Visual Growth Reduction (%) 21 Days After Application PHAMI (PHAMI lesser canary grass (Phalaris minor), 35 g ai/ha): B (85-94)
- Visual Growth Reduction (%) 21 Days After Application PHAMI (PHAMI lesser canary grass (Phalaris minor), 70 g ai/ha): A (95-100)
- GR50 PHAMI (PHAMI lesser canary grass (Phalaris minor), growth reduction of 50%, probit analysis): 10 g ai/ha
- GR80 PHAMI (PHAMI lesser canary grass (Phalaris minor), growth reduction of 80%, probit analysis): 24 g ai/ha
- GR90 PHAMI (PHAMI lesser canary grass (Phalaris minor), growth reduction of 90%, probit analysis): 39 g ai/ha
- GR50 SETVI (SETVI green foxtail (Setaria viridis), growth reduction of 50%, probit analysis): 6 g ai/ha
- GR80 SETVI (SETVI green foxtail (Setaria viridis), growth reduction of 80%, probit analysis): 13 g ai/ha
- GR90 SETVI (SETVI green foxtail (Setaria viridis), growth reduction of 90%, probit analysis): 21 g ai/ha
- Visual Growth Reduction (%) 21 Days After Application SINAR (SINAR wild mustard (Sinapis arvensis), 17.5 g ai/ha): C (75-84)
- Visual Growth Reduction (%) 21 Days After Application SINAR (SINAR wild mustard (Sinapis arvensis), 35 g ai/ha): B (85-94)
- Visual Growth Reduction (%) 21 Days After Application SINAR (SINAR wild mustard (Sinapis arvensis), 70 g ai/ha): A (95-100)
- GR50 SINAR (SINAR wild mustard (Sinapis arvensis), growth reduction of 50%, probit analysis): 3 g ai/ha
- GR80 SINAR (SINAR wild mustard (Sinapis arvensis), growth reduction of 80%, probit analysis): 15 g ai/ha
- GR90 SINAR (SINAR wild mustard (Sinapis arvensis), growth reduction of 90%, probit analysis): 36 g ai/ha
- GR10 TRZAS (TRZAS wheat, spring (crop), GR10, probit analysis): 2 g ai/ha
- GR20 TRZAS (TRZAS wheat, spring (crop), growth reduction of 20%, probit analysis): 3 g ai/ha
- pest or weed control at 17.5 g/ha (Triticum aestivum, TRZAS wheat, spring (crop), 17.5 g ai/ha, read-out: Visual Growth Reduction (%) 21 Days After Application TRZAS): 75 to 84%
- pest or weed control at 35 g/ha (Triticum aestivum, TRZAS wheat, spring (crop), 35 g ai/ha, read-out: Visual Growth Reduction (%) 21 Days After Application TRZAS): 85 to 94%
- pest or weed control at 70 g/ha (Triticum aestivum, TRZAS wheat, spring (crop), 70 g ai/ha, read-out: Visual Growth Reduction (%) 21 Days After Application TRZAS): 85 to 94%
- pest or weed control at 17.5 g/ha (ALOMY black-grass (Alopecurus myosuroides), 17.5 g ai/ha, read-out: Visual Growth Reduction (%) 21 Days After Application ALOMY): 45 to 59%
- pest or weed control at 35 g/ha (ALOMY black-grass (Alopecurus myosuroides), 35 g ai/ha, read-out: Visual Growth Reduction (%) 21 Days After Application ALOMY): 85 to 94%
- pest or weed control at 70 g/ha (ALOMY black-grass (Alopecurus myosuroides), 70 g ai/ha, read-out: Visual Growth Reduction (%) 21 Days After Application ALOMY): 95 to 100%
- pest or weed control at 17.5 g/ha (APESV bentgrass (Apera spica-venti), 17.5 g ai/ha, read-out: Visual Growth Reduction (%) 21 Days After Application APESV): 45 to 59%
- pest or weed control at 35 g/ha (APESV bentgrass (Apera spica-venti), 35 g ai/ha, read-out: Visual Growth Reduction (%) 21 Days After Application APESV): 60 to 74%
- pest or weed control at 70 g/ha (APESV bentgrass (Apera spica-venti), 70 g ai/ha, read-out: Visual Growth Reduction (%) 21 Days After Application APESV): 75 to 84%
- pest or weed control at 17.5 g/ha (LOLSS ryegrass, 17.5 g ai/ha, read-out: Visual Growth Reduction (%) 21 Days After Application LOLSS): 30 to 44%
- pest or weed control at 35 g/ha (LOLSS ryegrass, 35 g ai/ha, read-out: Visual Growth Reduction (%) 21 Days After Application LOLSS): 45 to 59%
- pest or weed control at 70 g/ha (LOLSS ryegrass, 70 g ai/ha, read-out: Visual Growth Reduction (%) 21 Days After Application LOLSS): 60 to 74%
- pest or weed control at 17.5 g/ha (SETVI green foxtail (Setaria viridis), 17.5 g ai/ha, read-out: Visual Growth Reduction (%) 21 Days After Application SETVI): 60 to 74%
- pest or weed control at 35 g/ha (SETVI green foxtail (Setaria viridis), 35 g ai/ha, read-out: Visual Growth Reduction (%) 21 Days After Application SETVI): 75 to 84%
- pest or weed control at 70 g/ha (SETVI green foxtail (Setaria viridis), 70 g ai/ha, read-out: Visual Growth Reduction (%) 21 Days After Application SETVI): 85 to 94%
